The values that follow come from patent US7358268B2, “Imidazole derivatives as factor Xa inhibitors” (Sanofi-Aventis Deutschland GmbH, priority 2002, dated 2008).

Molecules are shown by their SMILES.

T1 sequence (P00742 235-488 limits assumed): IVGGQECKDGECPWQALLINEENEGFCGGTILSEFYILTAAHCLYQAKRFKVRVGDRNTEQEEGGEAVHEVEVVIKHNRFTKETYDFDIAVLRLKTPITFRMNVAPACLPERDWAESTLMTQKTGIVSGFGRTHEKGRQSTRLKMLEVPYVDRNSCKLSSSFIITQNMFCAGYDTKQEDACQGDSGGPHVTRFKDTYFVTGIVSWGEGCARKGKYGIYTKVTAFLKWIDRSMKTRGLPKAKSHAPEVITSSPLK
T1 sequence (P00742 41-179 partner limits assumed): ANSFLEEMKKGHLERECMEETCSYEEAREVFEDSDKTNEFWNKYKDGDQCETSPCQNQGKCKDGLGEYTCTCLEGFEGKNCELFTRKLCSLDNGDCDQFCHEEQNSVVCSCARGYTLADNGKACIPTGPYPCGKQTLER

This assay addresses T1, human factor Xa (Homo sapiens, UniProt P00742).
T1 construct: 25 μl human factor Xa (Enzyme Research Laboratories, Inc; South Bend, Ind.) in TBS-PEG; purchased Enzyme Research Laboratories, Inc; South Bend, Ind
The assay is described as follows: Factor Xa assay (chromogenic, purified enzyme). In kind it is biochemical. Conditions: inhibition constant for factor Xa; chromogenic substrate S-2765 140 μM, enzyme 0.5 nM, 25° C., pH 7.8; Ki calculated from IC50 (Ki=IC50/{1+(substrate concentration/Km)}); read-out: Ki(FXa). How it is done: The ability of the compounds of the formula I to inhibit factor Xa or factor VIIa or other enzymes like thrombin, plasmin, or trypsin can be assessed by determining the concentration of the compound of the formula I that inhibits enzyme activity by 50%, i. e. the IC50 value, which was related to the inhibition constant Ki. Purified enzymes were used in chromogenic assays. The concentration of inhibitor that causes a 50% decrease in the rate of substrate hydrolysis was determined by linear regression after plotting the relative rates of hydrolysis (compared to the uninhibited control) versus the log of the concentration of the compound of formula I. For calculating the inhibition constant Ki, the IC50 value was corrected for competition with substrate using the formula Ki=IC50/{1+(substrate concentration/Km)} wherein Km is the Michaelis-Menten constant (Chen and Prusoff, Biochem. Pharmacol. 22 (1973), 3099-3108; I. H. Segal, Enzyme Kinetics, 1975, John Wiley & Sons, New York, 100-125; which were incorporated herein by reference). a) Factor Xa Assay
In the assay for determining the inhibition of factor Xa activity TBS-PEG buffer (50 mM Tris-HCl, pH 7.8, 200 mM NaCl, 0.05% (w/v) PEG-8000, 0.02% (w/v) NaN3) was used. The IC50 was determined by combining in appropriate wells of a Costar half-area microtiter plate 25 μl human factor Xa (Enzyme Research Laboratories, Inc.; South Bend, Ind.) in TBS-PEG; 40 μl 10% (v/v) DMSO in TBS-PEG (uninhibited control) or various concentrations of the compound to be tested diluted in 10% (v/v) DMSO in TBS-PEG; and substrate S-2765 (N(α)-benzyloxycarbonyl-D-Arg-Gly-L-Arg-p-nitroanilide; Kabi Pharmacia, Inc.; Franklin, Ohio) in TBS-PEG.
The assay was performed by pre-incubating the compound of formula I plus enzyme for 10 min. Then the assay was initiated by adding substrate to obtain a final volume of 100 μl. The initial velocity of chromogenic substrate hydrolysis was measured by the change in absorbance at 405 nm using a Bio-tek Instruments kinetic plate reader (Ceres UV900HDi) at 25° C. during the linear portion of the time course (usually 1.5 min after addition of substrate). The enzyme concentration was 0.5 nM and substrate concentration was 140 μM.
As to `CCS(=O)(=O)c1ncc(C(=O)NC2CCN(C(C)C)CC2)n1Cc1cc(-c2ccc(Cl)s2)on1` [Example 23, 3-[5-(5-Chloro-thiophen-2-yl)-isoxazol-3-ylmethyl]-2-ethanesulfonyl-3H-imidazole-4-carboxylic acid (1-isopropyl-piperidin-4-yl)-amide], the Ki was 6 nM.
Turning to `CCOC(=O)c1ncc(C(=O)NC2CCN(C(C)C)CC2)n1Cc1cc(-c2ccc(Cl)s2)on1` [Example 37, 1-[5-(5-Chloro-thiophen-2-yl)-isoxazol-3-ylmethyl]-5-(1-isopropyl-piperidin-4-ylcarbamoyl)-1H-imidazole-2-carboxylic acid ethyl ester], the inhibition constant Ki is 8 nM.
`CC(C)N1CCC(NC(=O)c2cnc(-c3c(F)cccc3F)n2Cc2cc(-c3ccc(Cl)s3)on2)CC1` [Example 12, 3-[5-(5-Chloro-thiophen-2-yl)-isoxazol-3-ylmethyl]-2-(2,6-difluoro-phenyl)-3H-imidazole-4-carboxylic acid (1-isopropyl-piperidin-4-yl)-amide]: the Ki was 18 nM.
In the case of `COC(=O)c1cn(Cc2cc(-c3ccc(Cl)s3)on2)c(C(=O)NC2CCN(C(C)C)CC2)n1` [Example 40, 1-[5-(5-Chloro-thiophen-2-yl)-isoxazol-3-ylmethyl]-2-(1-isopropyl-piperidin-4-ylcarbamoyl)-1H-imidazole-4-carboxylic acid methyl ester], the Ki was 20 nM.
The figure for `CC(C)c1ncc(C(=O)NC2CCN(C(C)C)CC2)n1Cc1cc(-c2ccc(Cl)s2)on1` [Example 16, 3-[5-(5-Chloro-thiophen-2-yl)-isoxazol-3-ylmethyl]-2-isopropyl-3H-imidazole-4-carboxylic acid (1-isopropyl-piperidin-4-yl)-amide] is 254 nM; for `CC(C)N1CCC(NC(=O)c2nc(C(N)=O)cn2Cc2cc(-c3ccc(Cl)s3)on2)CC1` [Example 41, 1-[5-(5-Chloro-thiophen-2-yl)-isoxazol-3-ylmethyl]-1H-imidazole-2,4-dicarboxylic acid 4-amide 2-[(1-isopropyl-piperidin-4-yl)-amide]] it is 46 nM; for `CC(C)N1CCC(NC(=O)c2c(Cl)nc(-c3ccccc3)n2Cc2cc(-c3ccc(Cl)s3)on2)CC1` [Example 3, 5-Chloro-3-[5-(5-chloro-thiophen-2-yl)-isoxazol-3-ylmethyl]-2-phenyl-3H-imidazole-4-carboxylic acid (1-isopropyl-piperidin-4-yl)-amide] it is 7 nM.
As for `Cc1nc(-c2ccccc2)n(Cc2cc(-c3ccc(Cl)s3)on2)c1C(=O)NC1CCN(C(C)C)CC1` [Example 18, 3-[5-(5-Chloro-thiophen-2-yl)-isoxazol-3-ylmethyl]-5-methyl-2-phenyl-3H-imidazole-4-carboxylic acid (1-isopropyl-piperidin-4-yl)-amide], the Ki is 7 nM.
Regarding `CC(C)N1CCC(NC(=O)c2nc(C(=O)OCC(=O)OC(C)(C)C)cn2Cc2cc(-c3ccc(Cl)s3)on2)CC1` [Example 46, 1-[5-(5-Chloro-thiophen-2-yl)-isoxazol-3-ylmethyl]-2-(1-isopropyl-piperidin-4-ylcarbamoyl)-1H-imidazole-4-carboxylic acid tert-butoxycarbonylmethyl ester], the Ki was 128 nM.
Regarding `CC(C)N1CCC(NC(=O)c2nc(C(=O)NCCO)cn2Cc2cc(-c3ccc(Cl)s3)on2)CC1` [Example 47], the Ki is 77 nM.
Consider `Cc1nc(I)n(Cc2cc(-c3ccc(Cl)s3)on2)c1C(=O)NC1CCN(C(C)C)CC1` [Example 7, 3-[5-(5-Chloro-thiophen-2-yl)-isoxazol-3-ylmethyl]-2-iodo-5-methyl-3H-imidazole-4-carboxylic acid (1-isopropyl-piperidin-4-yl)-amide], for which the Ki is 1 nM.
The figure for `CC(C)N1CCC(NC(=O)c2cncn2Cc2cc(-c3ccc(Cl)s3)on2)CC1` [Example 1, 3-[5-(5-Chloro-thiophen-2-yl)-isoxazol-3-ylmethyl]-3H-imidazole-4-carboxylic acid (1-isopropyl-piperidin-4-yl)-amide] is 65 nM; for `Cc1nc(-c2ncc(C(=O)NC3CCN(C(C)C)CC3)n2Cc2cc(-c3ccc(Cl)s3)on2)cs1` [Example 21, 3-[5-(5-Chloro-thiophen-2-yl)-isoxazol-3-ylmethyl]-2-(2-methyl-thiazol-4-yl)-3H-imidazole-4-carboxylic acid (1-isopropyl-piperidin-4-yl)-amide] it is 243 nM.
The figure for `CCc1nc(C)c(C(=O)NC2CCN(C(C)C)CC2)n1Cc1cc(-c2ccc(Cl)s2)on1` [Example 5, 3-[5-(5-Chloro-thiophen-2-yl)-isoxazol-3-ylmethyl]-2-ethyl-5-methyl-3H-imidazole-4-carboxylic acid (1-isopropyl-piperidin-4-yl)-amide] is 27 nM; for `CC(C)N1CCC(NC(=O)c2cnc(-c3c(Cl)cccc3Cl)n2Cc2cc(-c3ccc(Cl)s3)on2)CC1` [Example 15, 3-[5-(5-Chloro-thiophen-2-yl)-isoxazol-3-ylmethyl]-2-(2,6-dichloro-phenyl)-3H-imidazole-4-carboxylic acid (1-isopropyl-piperidin-4-yl)-amide] it is 56 nM; for `CC(C)N1CCC(NC(=O)c2nc(C(=O)N(C)CCO)cn2Cc2cc(-c3ccc(Cl)s3)on2)CC1` [Example 42] it is 126 nM.
The figure for `Cc1nc(C(N)=O)n(Cc2cc(-c3ccc(Cl)s3)on2)c1C(=O)NC1CCN(C(C)C)CC1` [Example 24, 3-[5-(5-Chloro-thiophen-2-yl)-isoxazol-3-ylmethyl]-5-methyl-3H-imidazole-2,4-dicarboxylic acid 2-amide 4-[(1-isopropyl-piperidin-4-yl)-amide]] is 22 nM.
As for `COC(=O)CCc1cn(Cc2cc(-c3ccc(Cl)s3)on2)c(C(=O)NC2CCN(C(C)C)CC2)n1` [Example 49, 3-[1-[5-(5-Chloro-thiophen-2-yl)-isoxazol-3-ylmethyl]-2-(1-isopropyl-piperidin-4-ylcarbamoyl)-1H-imidazol-4-yl]-propionic acid methyl ester], the inhibitory constant (Ki) was 37 nM.
For `CC(C)N1CCC(NC(=O)c2cnc(-c3ccccn3)n2Cc2cc(-c3ccc(Cl)s3)on2)CC1` [Example 17, 3-[5-(5-Chloro-thiophen-2-yl)-isoxazol-3-ylmethyl]-2-pyridin-2-yl-3H-imidazole-4-carboxylic acid (1-isopropyl-piperidin-4-yl)-amide], the Ki was 112 nM.
`CC(C)N1CCC(NC(=O)c2cncn2CC(=O)Nc2ccc(Cl)cn2)CC1` [Example 29, 3-[(5-Chloro-pyridin-2-ylcarbamoyl)-methyl]-3H-imidazole-4-carboxylic acid (1-isopropyl-piperidin-4-yl)-amide]: the inhibition constant (Ki) was 140 nM.
As to `CC(C)N1CCC(NC(=O)c2cnc(C3CC3)n2Cc2cc(-c3ccc(Cl)s3)on2)CC1` [Example 11, 3-[5-(5-Chloro-thiophen-2-yl)-isoxazol-3-ylmethyl]-2-cyclopropyl-3H-imidazole-4-carboxylic acid (1-isopropyl-piperidin-4-yl)-amide], the inhibition constant (Ki) is 4 nM.
With `CC(C)N1CCC(NC(=O)c2cnc(-c3cccnc3)n2Cc2cc(-c3ccc(Cl)s3)on2)CC1` [Example 20, 3-[5-(5-Chloro-thiophen-2-yl)-isoxazol-3-ylmethyl]-2-pyridin-3-yl-3H-imidazole-4-carboxylic acid (1-isopropyl-piperidin-4-yl)-amide], the Ki was 358 nM.
Consider `CC(C)N1CCC(NC(=O)c2nc(C(=O)OC(C)(C)C)cn2Cc2cc(-c3ccc(Cl)s3)on2)CC1` [Example 38, 1-[5-(5-Chloro-thiophen-2-yl)-isoxazol-3-ylmethyl]-2-(1-isopropyl-piperidin-4-ylcarbamoyl)-1H-imidazole-4-carboxylic acid tert-butyl ester], for which the Ki is 174 nM.
In the case of `CCc1nc(C(=O)NC2CCN(C(C)C)CC2)c(C)n1Cc1cc(-c2ccc(Cl)s2)on1` [Example 6, 1-[5-(5-Chloro-thiophen-2-yl)-isoxazol-3-ylmethyl]-2-ethyl-5-methyl-1H-imidazole-4-carboxylic acid (1-isopropyl-piperidin-4-yl)-amide], the inhibition constant Ki is 530 nM.
Regarding `CC(C)N1CCC(NC(=O)c2nc(C(=O)OCC3CC3)cn2Cc2cc(-c3ccc(Cl)s3)on2)CC1` [Example 45, 1-[5-(5-Chloro-thiophen-2-yl)-isoxazol-3-ylmethyl]-2-(1-isopropyl-piperidin-4-ylcarbamoyl)-1H-imidazole-4-carboxylic acid cyclopropylmethyl ester], the Ki is 57 nM.
